Source: patent publication EP4745135A1 (Gluetacs Therapeutics (Shanghai) Co., Ltd., priority 2023, dated 2025)
Read-outs that look alike come from different tables or passages of the source.

Experiments:
[1] = tested on: Human T lymphocytic leukemia cell line: Jurkat; experiment: Tumor cell proliferation inhibition (CellTiter-Meiluncell luminescent cell viability assay); conditions: 96 h, read-out: Inhibitory activity (IC50, nM) on tumor cell proliferation, Jurkat
Description: (§1) The tumor cells used herein were cultured in a cell culture medium listed in table 2 at 37°C in an incubator with 5% CO2. Prior to experimentation, all cell lines used were correctly identified by STR profiling, and tested negative for mycoplasma contamination using a mycoplasma detection kit through routine screenings.
(§2) The IC50 values of the compounds of the present disclosure (including the compounds in Table 1 and Examples) were determined using the CellTiter-Meiluncell Luminescent Cell Viability Assay Kit from Dalian Meilun Biotech Co., Ltd. The detailed procedure is as follows: Tumor cells were seeded in 96-well cell culture plates at the densities specified in Table 3. On the following day, the test compounds of the present disclosure were subjected to serial dilution. The dilution can be performed according to one of the following two methods: • (1) The first dilution method: The test compounds of the present disclosure (including the compounds in Table 1 and Examples) were subjected to 5-fold serial dilutions starting from a highest concentration of 2000 µM, resulting in a total of 9 concentrations from high to low (2000, 400, 80, 16, 3.2, 0.64, 0.128, 0.0256, 0.00512 µM). Subsequently, 0.5 µL of the test compound dilution was transferred into the 96-well plate containing the cells, with each well containing 100 µL of cell culture medium. […] Into the 96-well plate, the diluted test compounds and corresponding detection reagents were added, resulting in final test compound concentrations of 500 nM and 10 nM, respectively. The experimental procedure is described below using the diluted 2 µM test compound as an example.
(§3) 0.5 µL of the aforementioned diluted compound of the present disclosure (including the compounds in Table 1 and Examples) was added to the seeded cells in 100 µL of medium, yielding a final test compound concentration of 10 nM. After the cells were treated with the compounds of the present disclosure for a specified period, the cell viability assay reagent was added to the culture medium according to the kit's instructions to determine cell viability. […] All controls were treated using the same procedure as the compounds of the present disclosure. The growth inhibition curves for the compounds of the present disclosure were plotted using Prism GraphPad software, and the IC50 values were calculated therefrom.

[2] = tested on: Human non-small cell lung cancer cell line: NCI-H1975; experiment: as above; conditions: NCI-H1975, 96 h, read-out: Inhibitory activity (IC50, nM) on tumor cell proliferation, H1975
Description: as §1, §2, §3

[3] = tested on: Human multiple myeloma cell (MM.1S); experiment: as above; conditions: Homo sapiens, MM1.S, 96 h, read-out: Inhibitory activity (IC50, nM) on tumor cell proliferation, MM.1S
[4] = tested on: GSPT1; experiment: Western blot, degradation of substrate protein in hPBMCs; type: cell-based, Human; conditions: Western blot, 24 hours of compound treatment, compounds tested at 50 nM and 500 nM (concentration for the table not stated)
[5] = target: T1, IKZF1 (Homo sapiens, UniProt Q13422+Q96SW2); experiment: as above; type: cell-based; conditions: Western blot, 24 hours of compound treatment, compounds tested at 50 nM and 500 nM (concentration for the table not stated)
T1 construct: effects of the compounds of the present disclosure on the expression of target proteins in cells; endogenous in cells; host or cells: human PBMCs (Milecell Biotechnologies)
T1 sequence (Q13422 whole entry): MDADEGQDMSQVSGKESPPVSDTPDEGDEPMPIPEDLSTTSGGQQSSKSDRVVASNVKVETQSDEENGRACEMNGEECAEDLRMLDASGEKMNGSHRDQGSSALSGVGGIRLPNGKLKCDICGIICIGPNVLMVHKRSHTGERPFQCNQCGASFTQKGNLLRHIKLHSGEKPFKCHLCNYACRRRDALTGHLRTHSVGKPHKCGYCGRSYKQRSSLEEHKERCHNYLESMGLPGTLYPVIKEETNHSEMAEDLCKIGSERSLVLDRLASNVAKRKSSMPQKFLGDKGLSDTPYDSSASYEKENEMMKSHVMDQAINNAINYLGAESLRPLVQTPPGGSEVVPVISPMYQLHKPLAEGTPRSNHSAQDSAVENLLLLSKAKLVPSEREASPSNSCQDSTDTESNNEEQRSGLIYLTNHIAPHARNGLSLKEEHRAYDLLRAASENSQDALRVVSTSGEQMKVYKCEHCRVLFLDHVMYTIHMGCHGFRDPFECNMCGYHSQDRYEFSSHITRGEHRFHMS
T1 sequence (Q96SW2 whole entry): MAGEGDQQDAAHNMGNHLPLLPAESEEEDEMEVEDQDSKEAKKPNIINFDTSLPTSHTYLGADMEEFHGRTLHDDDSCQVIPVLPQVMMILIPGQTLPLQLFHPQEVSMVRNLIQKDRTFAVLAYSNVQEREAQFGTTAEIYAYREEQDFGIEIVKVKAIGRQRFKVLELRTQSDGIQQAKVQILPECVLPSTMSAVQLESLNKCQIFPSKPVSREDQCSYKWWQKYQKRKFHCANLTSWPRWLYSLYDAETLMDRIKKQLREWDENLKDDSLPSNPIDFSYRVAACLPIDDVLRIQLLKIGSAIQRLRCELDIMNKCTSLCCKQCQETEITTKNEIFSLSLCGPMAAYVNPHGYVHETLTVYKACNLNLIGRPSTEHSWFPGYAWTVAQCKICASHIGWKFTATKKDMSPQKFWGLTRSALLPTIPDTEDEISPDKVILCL
T1 sequence (Q16531 whole entry partner): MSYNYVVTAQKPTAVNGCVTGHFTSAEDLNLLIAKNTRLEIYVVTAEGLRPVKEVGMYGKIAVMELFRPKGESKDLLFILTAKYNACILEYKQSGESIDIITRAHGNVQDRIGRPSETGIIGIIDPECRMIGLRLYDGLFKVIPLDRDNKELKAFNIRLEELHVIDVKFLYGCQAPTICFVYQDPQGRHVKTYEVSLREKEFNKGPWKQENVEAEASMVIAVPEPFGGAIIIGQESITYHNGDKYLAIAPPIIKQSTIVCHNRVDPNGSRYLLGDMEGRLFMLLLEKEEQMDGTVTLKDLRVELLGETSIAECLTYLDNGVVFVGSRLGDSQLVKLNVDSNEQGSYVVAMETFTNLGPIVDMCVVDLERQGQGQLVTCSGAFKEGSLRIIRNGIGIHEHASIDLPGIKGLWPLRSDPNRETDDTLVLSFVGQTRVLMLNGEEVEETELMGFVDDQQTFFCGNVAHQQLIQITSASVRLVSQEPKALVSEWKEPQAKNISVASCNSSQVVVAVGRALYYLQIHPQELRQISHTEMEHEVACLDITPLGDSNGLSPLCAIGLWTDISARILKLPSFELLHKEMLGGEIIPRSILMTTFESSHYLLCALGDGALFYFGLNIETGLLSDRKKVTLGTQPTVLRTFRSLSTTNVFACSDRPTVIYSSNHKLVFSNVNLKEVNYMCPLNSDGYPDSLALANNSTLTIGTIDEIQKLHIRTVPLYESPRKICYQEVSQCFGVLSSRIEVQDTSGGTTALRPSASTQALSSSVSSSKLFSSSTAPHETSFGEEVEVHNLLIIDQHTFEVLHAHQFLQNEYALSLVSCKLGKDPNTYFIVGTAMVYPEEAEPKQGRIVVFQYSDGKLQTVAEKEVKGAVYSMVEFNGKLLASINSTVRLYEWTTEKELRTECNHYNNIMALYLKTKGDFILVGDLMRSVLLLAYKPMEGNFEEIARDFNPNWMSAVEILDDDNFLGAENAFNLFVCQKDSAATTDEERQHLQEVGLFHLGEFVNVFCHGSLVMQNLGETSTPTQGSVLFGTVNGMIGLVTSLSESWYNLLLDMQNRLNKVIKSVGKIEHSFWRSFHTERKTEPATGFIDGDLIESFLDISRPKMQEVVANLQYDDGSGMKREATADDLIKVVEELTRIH

[6] = target: T2, IKZF2 (Homo sapiens, UniProt Q96SW2+Q9UKS7); experiment: as above; type: cell-based; conditions: Western blot, 24 hours of compound treatment, compounds tested at 50 nM and 500 nM (concentration for the table not stated)
T2 construct: effects of the compounds of the present disclosure on the expression of target proteins in cells; endogenous in cells; host or cells: human PBMCs (Milecell Biotechnologies)
T2 sequence (Q9UKS7 whole entry): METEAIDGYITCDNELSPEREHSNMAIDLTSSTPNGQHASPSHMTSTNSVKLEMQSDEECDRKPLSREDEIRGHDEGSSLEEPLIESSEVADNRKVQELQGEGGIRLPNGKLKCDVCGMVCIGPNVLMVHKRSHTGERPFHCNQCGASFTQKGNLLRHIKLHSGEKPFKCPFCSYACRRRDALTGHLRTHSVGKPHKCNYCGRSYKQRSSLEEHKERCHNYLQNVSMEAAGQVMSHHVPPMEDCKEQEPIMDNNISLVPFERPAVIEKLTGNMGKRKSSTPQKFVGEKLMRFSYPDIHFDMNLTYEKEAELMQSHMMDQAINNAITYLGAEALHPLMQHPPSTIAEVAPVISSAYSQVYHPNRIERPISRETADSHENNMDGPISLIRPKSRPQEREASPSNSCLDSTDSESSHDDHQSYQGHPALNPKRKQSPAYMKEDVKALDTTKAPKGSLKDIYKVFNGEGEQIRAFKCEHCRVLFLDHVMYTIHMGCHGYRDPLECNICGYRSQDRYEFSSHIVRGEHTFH
T2 sequence (Q96SW2 whole entry): as the sequence (Q96SW2 whole entry) above
T2 sequence (Q16531 whole entry partner): as the sequence (Q16531 whole entry partner) above

[7] = target: T3, WEE1 (Homo sapiens, UniProt P30291+Q96SW2); experiment: as above; type: cell-based; conditions: Western blot, 24 hours of compound treatment, compounds tested at 50 nM and 500 nM (concentration for the table not stated)
T3 construct: effects of the compounds of the present disclosure on the expression of target proteins in cells; endogenous in cells; host or cells: human PBMCs (Milecell Biotechnologies)
T3 sequence (P30291 whole entry): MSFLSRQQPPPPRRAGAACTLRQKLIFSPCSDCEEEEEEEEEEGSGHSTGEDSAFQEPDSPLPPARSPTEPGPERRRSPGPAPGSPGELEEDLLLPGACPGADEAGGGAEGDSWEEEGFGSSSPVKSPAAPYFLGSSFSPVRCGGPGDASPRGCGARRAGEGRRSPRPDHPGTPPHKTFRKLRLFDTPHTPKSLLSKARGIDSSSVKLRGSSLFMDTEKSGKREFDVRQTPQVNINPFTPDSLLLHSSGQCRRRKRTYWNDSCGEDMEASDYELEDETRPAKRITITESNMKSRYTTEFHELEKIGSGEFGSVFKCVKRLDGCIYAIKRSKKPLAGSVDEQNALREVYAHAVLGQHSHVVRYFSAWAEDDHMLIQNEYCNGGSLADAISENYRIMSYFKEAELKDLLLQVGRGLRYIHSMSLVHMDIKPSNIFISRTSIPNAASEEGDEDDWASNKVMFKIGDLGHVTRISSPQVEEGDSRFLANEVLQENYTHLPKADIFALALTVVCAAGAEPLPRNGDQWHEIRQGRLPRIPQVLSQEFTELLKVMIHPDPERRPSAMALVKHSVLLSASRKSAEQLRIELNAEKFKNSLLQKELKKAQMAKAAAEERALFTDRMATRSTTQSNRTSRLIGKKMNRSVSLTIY
T3 sequence (Q96SW2 whole entry): as the sequence (Q96SW2 whole entry) above
T3 sequence (Q16531 whole entry partner): as the sequence (Q16531 whole entry partner) above

[8] = target: T4, CK1α (Homo sapiens, UniProt P48729+Q96SW2); experiment: as above; type: cell-based; conditions: Western blot, 24 hours of compound treatment, compounds tested at 50 nM and 500 nM (concentration for the table not stated)
T4 construct: effects of the compounds of the present disclosure on the expression of target proteins in cells; endogenous in cells; host or cells: human PBMCs (Milecell Biotechnologies)
T4 sequence (P48729 whole entry): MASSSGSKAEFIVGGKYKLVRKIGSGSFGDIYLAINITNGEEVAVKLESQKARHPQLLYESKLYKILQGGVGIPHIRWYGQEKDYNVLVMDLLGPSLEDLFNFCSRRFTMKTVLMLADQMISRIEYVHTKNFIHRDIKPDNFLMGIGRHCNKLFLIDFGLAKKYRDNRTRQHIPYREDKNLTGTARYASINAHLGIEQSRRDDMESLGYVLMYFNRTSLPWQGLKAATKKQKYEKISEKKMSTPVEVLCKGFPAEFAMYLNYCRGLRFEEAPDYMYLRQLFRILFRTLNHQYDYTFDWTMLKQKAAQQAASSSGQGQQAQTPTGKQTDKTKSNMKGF
T4 sequence (Q96SW2 whole entry): as the sequence (Q96SW2 whole entry) above
T4 sequence (Q16531 whole entry partner): as the sequence (Q16531 whole entry partner) above

[9] = target: T5, IKZF3 (Homo sapiens, UniProt Q96SW2+Q9UKT9); experiment: as above; type: cell-based; conditions: Western blot, 24 hours of compound treatment, compounds tested at 50 nM and 500 nM (concentration for the table not stated)
T5 construct: effects of the compounds of the present disclosure on the expression of target proteins in cells; endogenous in cells; host or cells: human PBMCs (Milecell Biotechnologies)
T5 sequence (Q9UKT9 whole entry): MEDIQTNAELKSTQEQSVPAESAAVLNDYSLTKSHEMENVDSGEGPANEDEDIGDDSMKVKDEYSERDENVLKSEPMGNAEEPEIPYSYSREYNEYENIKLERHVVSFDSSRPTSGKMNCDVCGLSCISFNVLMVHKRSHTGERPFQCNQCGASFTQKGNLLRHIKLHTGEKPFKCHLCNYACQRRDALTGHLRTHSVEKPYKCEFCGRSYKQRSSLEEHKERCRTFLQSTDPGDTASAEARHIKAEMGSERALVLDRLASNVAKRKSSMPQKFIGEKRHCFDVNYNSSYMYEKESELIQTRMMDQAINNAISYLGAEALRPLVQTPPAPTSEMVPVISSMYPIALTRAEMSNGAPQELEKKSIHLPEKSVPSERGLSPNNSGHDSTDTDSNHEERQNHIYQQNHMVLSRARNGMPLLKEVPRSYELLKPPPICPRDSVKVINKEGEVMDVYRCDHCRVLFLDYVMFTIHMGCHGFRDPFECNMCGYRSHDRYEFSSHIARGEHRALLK
T5 sequence (Q96SW2 whole entry): as the sequence (Q96SW2 whole entry) above
T5 sequence (Q16531 whole entry partner): as the sequence (Q16531 whole entry partner) above

[10] = target: T6, human Cereblon WT GST-tagged protein (Homo sapiens, UniProt Q96SW2); experiment: CRBN-binding affinity, HTRF (CEREBLON BINDING kit)
T6 construct: purchased CISBIO 64BDCRBNPEH
T6 sequence (Q96SW2 whole entry): as the sequence (Q96SW2 whole entry) above

[11] = tested on: Human breast cancer cell (MCF-7); experiment: Tumor cell proliferation inhibition (CellTiter-Meiluncell luminescent cell viability assay); conditions: MCF7, 96 h, read-out: Inhibitory activity (IC50, nM) on tumor cell proliferation, MCF7
Description: as §1, §2, §3

[12] = tested on: Human mantle cell lymphoma cell line: JEKO-1; experiment: as above; conditions: JeKo-1, 96 h, read-out: Inhibitory activity (IC50, nM) on tumor cell proliferation, JEKO-1
Description: as §1, §2, §3

[13] = tested on: Human gastric cancer cell line: MGC803; experiment: as above; conditions: MGC-803, read-out: Inhibitory activity (IC50, nM) on tumor cell proliferation, MGC803
Description: as §2, §3

[14] = CRBN binding, HTRF, 3 hours at room temperature; read-out: HTRF IC50

Compound | IC50 [1] [nM] | IC50 [2] [nM] | IC50 [3] [nM] | GSPT1 substrate protein remaining % [4] | IKZF 1 substrate protein remaining % [5] | IKZF2 substrate protein remaining % [6] | Wee1 substrate protein remaining % [7] | CK1α substrate protein remaining % [8] | IKZF3 substrate protein remaining % [9] | IC50 ([10]; read-out: HTRF IC50; CRBN binding, HTRF, 3 hours at room temperature) [nM] | IC50 [11] [nM] | IC50 [12] [nM] | IC50 [13] [nM] | IC50 [10, 14] [nM]
O=C1CCC(N2Cc3cc(CN4CCC(N(c5ccccc5)c5ccccc5)CC4)ccc3C2=S)C(=O)N1 (centres unmarked) | < 5 | 5 to 10 | < 5 | A (0% ≤ substrate protein remaining % ≤ 80%) | A (0% ≤ substrate protein remaining % ≤ 80%) | A (0% ≤ substrate protein remaining % ≤ 80%) | A (0% ≤ substrate protein remaining % ≤ 80%) | B (80%< substrate protein remaining %≤ 100%) | A (0% ≤ substrate protein remaining % ≤ 80%) | 100 to 500 | 10 to 50 | < 5 | 5 to 10 | –
O=C1CCC(N2Cc3cc(CN4CCN(c5cccc6sccc56)CC4)ccc3C2=S)C(=O)N1 (centres unmarked) [GT-05088, 3-(5-((4-(benzo[b]thiophen-4-yl)piperazin-1-yl)methyl)-1-thioxoisoindolin-2-yl)piperidine-2,6-dione] | 50 to 100 | 50 to 100 | 10 to 50 | A (0% ≤ substrate protein remaining % ≤ 80%) | A (0% ≤ substrate protein remaining % ≤ 80%) | A (0% ≤ substrate protein remaining % ≤ 80%) | A (0% ≤ substrate protein remaining % ≤ 80%) | B (80%< substrate protein remaining %≤ 100%) | A (0% ≤ substrate protein remaining % ≤ 80%) | – | 100 to 500 | 10 to 50 | 100 to 500 | 100 to 500
Cc1ccc(Sc2ccccc2N2CCN(Cc3ccc4c(c3)CN(C3CCC(=O)NC3=O)C4=S)CC2)c(C)c1 (centres unmarked) [GT-05092, 3-(5-((4-(2-((2,4-dimethylphenyl)thio)phenyl)piperazin-1-yl)methyl)-1-thioxoisoindolin-2-yl)piperidine-2,6-dione] | 50 to 100 | 50 to 100 | 10 to 50 | A (0% ≤ substrate protein remaining % ≤ 80%) | A (0% ≤ substrate protein remaining % ≤ 80%) | A (0% ≤ substrate protein remaining % ≤ 80%) | A (0% ≤ substrate protein remaining % ≤ 80%) | B (80%< substrate protein remaining %≤ 100%) | A (0% ≤ substrate protein remaining % ≤ 80%) | – | 100 to 500 | 10 to 50 | 100 to 500 | 500 to 1000
O=C1CCC(N2Cc3cc(CN4CCC(Nc5ccccc5-c5ccc(Cl)cc5)CC4)ccc3C2=S)C(=O)N1 (centres unmarked) [GT-05109, 3-(5-((4-((4'-chloro-[1,1'-biphenyl]-2-yl)amino)piperidin-1-yl)methyl)-1-thioxoisoindolin-2-yl)piperidine-2,6-dione] | < 5 | 5 to 10 | < 5 | A (0% ≤ substrate protein remaining % ≤ 80%) | A (0% ≤ substrate protein remaining % ≤ 80%) | A (0% ≤ substrate protein remaining % ≤ 80%) | A (0% ≤ substrate protein remaining % ≤ 80%) | A (0% ≤ substrate protein remaining % ≤ 80%) | A (0% ≤ substrate protein remaining % ≤ 80%) | – | 10 to 50 | 5 to 10 | 10 to 50 | 500 to 1000
Cc1ccc(C2=CCN(Cc3ccc4c(c3)CN(C3CCC(=O)NC3=O)C4=S)CC2)s1 (centres unmarked) [GT-05111, 3-(5-((4-(5-methylthiophen-2-yl)-3,6-dihydropyridin-1(2H)-yl)methyl)-1-thioxoisoindolin-2-yl)piperidine-2,6-dione] | 50 to 100 | 50 to 100 | 10 to 50 | A (0% ≤ substrate protein remaining % ≤ 80%) | A (0% ≤ substrate protein remaining % ≤ 80%) | A (0% ≤ substrate protein remaining % ≤ 80%) | A (0% ≤ substrate protein remaining % ≤ 80%) | A (0% ≤ substrate protein remaining % ≤ 80%) | A (0% ≤ substrate protein remaining % ≤ 80%) | – | 100 to 500 | 50 to 100 | 100 to 500 | 100 to 500
Cc1cscc1C1=CCN(Cc2ccc3c(c2)CN(C2CCC(=O)NC2=O)C3=S)CC1 (centres unmarked) [GT-05145, 3-(5-((4-(4-methylthiophen-3-yl)-3,6-dihydropyridin-1(2H)-yl)methyl)-1-thioxoisoindolin-2-yl)piperidine-2,6-dione] | < 5 | 5 to 10 | < 5 | A (0% ≤ substrate protein remaining % ≤ 80%) | A (0% ≤ substrate protein remaining % ≤ 80%) | A (0% ≤ substrate protein remaining % ≤ 80%) | A (0% ≤ substrate protein remaining % ≤ 80%) | A (0% ≤ substrate protein remaining % ≤ 80%) | A (0% ≤ substrate protein remaining % ≤ 80%) | – | 10 to 50 | < 5 | 10 to 50 | < 100
O=C1CCC(N2Cc3cc(CN4CC=C(c5cccc(Cl)c5Cl)CC4)ccc3C2=S)C(=O)N1 (centres unmarked) [GT-05149, 3-(5-((4-(2,3-dichlorophenyl)-3,6-dihydropyridin-1(2H)-yl)methyl)-1-thioxoisoindolin-2-yl)piperidine-2,6-dione] | 5 to 10 | 10 to 50 | < 5 | A (0% ≤ substrate protein remaining % ≤ 80%) | A (0% ≤ substrate protein remaining % ≤ 80%) | A (0% ≤ substrate protein remaining % ≤ 80%) | A (0% ≤ substrate protein remaining % ≤ 80%) | B (80%< substrate protein remaining %≤ 100%) | A (0% ≤ substrate protein remaining % ≤ 80%) | – | 10 to 50 | 5 to 10 | 10 to 50 | 100 to 500
O=C1CCC(N2Cc3cc(CN4CCC(c5cccc(Cl)c5Cl)CC4)ccc3C2=S)C(=O)N1 (centres unmarked) [GT-05150, 3-(5-((4-(2,3-dichlorophenyl)piperidin-1-yl)methyl)-1-thioxoisoindolin-2-yl)piperidine-2,6-dione] | 10 to 50 | 50 to 100 | 5 to 10 | A (0% ≤ substrate protein remaining % ≤ 80%) | A (0% ≤ substrate protein remaining % ≤ 80%) | A (0% ≤ substrate protein remaining % ≤ 80%) | A (0% ≤ substrate protein remaining % ≤ 80%) | B (80%< substrate protein remaining %≤ 100%) | B (80%< substrate protein remaining %≤ 100%) | – | 100 to 500 | 50 to 100 | 100 to 500 | 500 to 1000
